Results: PubChem BioAssay (NCI)
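Five compound concentrations were applied to cells in 96-well plates for 48 hours; endpoints were derived by simple linear interpolation of the resulting dose-response curve. GI50 = concentration required for 50% inhibition of growth. TGI: total growth inhibition.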

Assays:
Assay in all cases: DTP human tumour cell line panel, 48 h
786-0 renal = test system: 786-0 renal
A549 NSCLC = test system: A549 NSCLC
ACHN renal = test system: ACHN renal
BT-549 breast = test system: BT-549 breast
CAKI-1 renal = test system: CAKI-1 renal
CCRF-CEM leukemia = test system: CCRF-CEM leukemia
COLO 205 colon = test system: COLO 205 colon
DU-145 prostate = test system: DU-145 prostate
EKVX NSCLC = test system: EKVX NSCLC
HCC-2998 colon = test system: HCC-2998 colon
HCT-116 colon = test system: HCT-116 colon
HCT-15 colon = test system: HCT-15 colon
HOP-62 NSCLC = test system: HOP-62 NSCLC
HOP-92 NSCLC = test system: HOP-92 NSCLC
HS 578T breast = test system: HS 578T breast
HT29 colon = test system: HT29 colon
IGROV1 ovarian = test system: IGROV1 ovarian
K-562 leukemia = test system: K-562 leukemia
KM12 colon = test system: KM12 colon
LOX IMVI melanoma = test system: LOX IMVI melanoma
M14 melanoma = test system: M14 melanoma
MCF7 breast = test system: MCF7 breast
MDA-MB-231 breast = test system: MDA-MB-231 breast
MDA-MB-435 = test system: MDA-MB-435
MOLT-4 leukemia = test system: MOLT-4 leukemia
NCI-H226 lung = test system: NCI-H226 lung
NCI-H23 lung = test system: NCI-H23 lung
NCI-H460 lung = test system: NCI-H460 lung
NCI-H522 lung = test system: NCI-H522 lung
NCI/ADR-RES ovarian = test system: NCI/ADR-RES ovarian
OVCAR-3 ovarian = test system: OVCAR-3 ovarian
OVCAR-4 ovarian = test system: OVCAR-4 ovarian
OVCAR-5 ovarian = test system: OVCAR-5 ovarian
OVCAR-8 ovarian = test system: OVCAR-8 ovarian
PC-3 prostate = test system: PC-3 prostate
RPMI-8226 leukemia = test system: RPMI-8226 leukemia
RXF 393 renal = test system: RXF 393 renal
SF-268 CNS = test system: SF-268 CNS
SF-295 CNS = test system: SF-295 CNS
SF-539 CNS = test system: SF-539 CNS
SK-MEL-2 melanoma = test system: SK-MEL-2 melanoma
SK-MEL-28 melanoma = test system: SK-MEL-28 melanoma
SK-MEL-5 melanoma = test system: SK-MEL-5 melanoma
SK-OV-3 ovarian = test system: SK-OV-3 ovarian
SN12C renal = test system: SN12C renal
SNB-19 CNS = test system: SNB-19 CNS
SNB-75 CNS = test system: SNB-75 CNS
SW-620 colon = test system: SW-620 colon
T-47D breast = test system: T-47D breast
TK-10 renal = test system: TK-10 renal
U251 CNS = test system: U251 CNS
UACC-257 melanoma = test system: UACC-257 melanoma
UACC-62 melanoma = test system: UACC-62 melanoma
UO-31 renal = test system: UO-31 renal

Q: What does the source list for `O=C(Cc1csc2nc(-c3ccc(Br)cc3)cn12)N/N=C/c1cc(Br)ccc1O`?
A: GI50 (786-0 renal): 15 µM; TGI (786-0 renal): > 100 µM; GI50 (A549 NSCLC): 18.8 µM; TGI (A549 NSCLC): > 100 µM; GI50 (ACHN renal): 6.13 µM; TGI (ACHN renal): 42.9 µM; GI50 (BT-549 breast): 27.7 µM; TGI (BT-549 breast): > 100 µM; GI50 (CAKI-1 renal): 4.53 µM; TGI (CAKI-1 renal): 34.9 µM; GI50 (CCRF-CEM leukemia): 3.89 µM; TGI (CCRF-CEM leukemia): 38.6 µM; GI50 (COLO 205 colon): 23.9 µM; TGI (COLO 205 colon): > 100 µM; GI50 (DU-145 prostate): 19.5 µM; TGI (DU-145 prostate): > 100 µM; GI50 (EKVX NSCLC): 24.2 µM; TGI (EKVX NSCLC): > 100 µM; GI50 (HCC-2998 colon): 5.5 µM; TGI (HCC-2998 colon): 19.7 µM; GI50 (HCT-116 colon): 4.31 µM; TGI (HCT-116 colon): 48.2 µM; GI50 (HCT-15 colon): 5.6 µM; TGI (HCT-15 colon): > 100 µM; GI50 (HOP-62 NSCLC): 9.77 µM; TGI (HOP-62 NSCLC): 41.3 µM; GI50 (HOP-92 NSCLC): 22.2 µM; TGI (HOP-92 NSCLC): > 100 µM; GI50 (HS 578T breast): 53.3 µM; TGI (HS 578T breast): > 100 µM; GI50 (HT29 colon): 34.7 µM; TGI (HT29 colon): > 100 µM; GI50 (IGROV1 ovarian): 1770 nM; TGI (IGROV1 ovarian): > 100 µM; GI50 (K-562 leukemia): 3.02 µM; TGI (K-562 leukemia): 13.9 µM; GI50 (KM12 colon): 29.6 µM; TGI (KM12 colon): > 100 µM; GI50 (LOX IMVI melanoma): 6.79 µM; TGI (LOX IMVI melanoma): 28 µM; GI50 (M14 melanoma): 14.3 µM; TGI (M14 melanoma): 30.4 µM; GI50 (MCF7 breast): > 100 µM; TGI (MCF7 breast): > 100 µM; GI50 (MDA-MB-231 breast): 11.8 µM; TGI (MDA-MB-231 breast): 66.8 µM; GI50 (MDA-MB-435): 18 µM; TGI (MDA-MB-435): > 100 µM; GI50 (MOLT-4 leukemia): 674 nM; TGI (MOLT-4 leukemia): 8.41 µM; GI50 (NCI-H226 lung): 23.3 µM; TGI (NCI-H226 lung): 65.1 µM; GI50 (NCI-H23 lung): 4.32 µM; TGI (NCI-H23 lung): 26.2 µM; GI50 (NCI-H460 lung): > 100 µM; TGI (NCI-H460 lung): > 100 µM; GI50 (NCI-H522 lung): 11.3 µM; TGI (NCI-H522 lung): > 100 µM; GI50 (NCI/ADR-RES ovarian): 2230 nM; TGI (NCI/ADR-RES ovarian): 6.75 µM; GI50 (OVCAR-3 ovarian): 45.3 µM; TGI (OVCAR-3 ovarian): > 100 µM; GI50 (OVCAR-4 ovarian): 50.2 µM; TGI (OVCAR-4 ovarian): > 100 µM; GI50 (OVCAR-5 ovarian): 14 µM; TGI (OVCAR-5 ovarian): 73.5 µM; GI50 (OVCAR-8 ovarian): 7.06 µM; TGI (OVCAR-8 ovarian): > 100 µM; GI50 (PC-3 prostate): 9.46 µM; TGI (PC-3 prostate): > 100 µM; GI50 (RPMI-8226 leukemia): 5.04 µM; TGI (RPMI-8226 leukemia): > 100 µM; GI50 (RXF 393 renal): 63.9 µM; TGI (RXF 393 renal): > 100 µM; GI50 (SF-268 CNS): > 100 µM; TGI (SF-268 CNS): > 100 µM; GI50 (SF-295 CNS): 14 µM; TGI (SF-295 CNS): 88.3 µM; GI50 (SF-539 CNS): 14.9 µM; TGI (SF-539 CNS): 53.8 µM; GI50 (SK-MEL-2 melanoma): 89 µM; TGI (SK-MEL-2 melanoma): > 100 µM; GI50 (SK-MEL-28 melanoma): 48.8 µM; TGI (SK-MEL-28 melanoma): > 100 µM; GI50 (SK-MEL-5 melanoma): 11.4 µM; TGI (SK-MEL-5 melanoma): 45.4 µM; GI50 (SK-OV-3 ovarian): > 100 µM; TGI (SK-OV-3 ovarian): > 100 µM; GI50 (SN12C renal): 16.6 µM; TGI (SN12C renal): 79.6 µM; GI50 (SNB-19 CNS): 26.1 µM; TGI (SNB-19 CNS): > 100 µM; GI50 (SNB-75 CNS): > 100 µM; TGI (SNB-75 CNS): > 100 µM; GI50 (SW-620 colon): 5.51 µM; TGI (SW-620 colon): > 100 µM; GI50 (T-47D breast): 35.3 µM; TGI (T-47D breast): > 100 µM; GI50 (TK-10 renal): 4.33 µM; TGI (TK-10 renal): 17 µM; GI50 (U251 CNS): 11.3 µM; TGI (U251 CNS): > 100 µM; GI50 (UACC-257 melanoma): 20.1 µM; TGI (UACC-257 melanoma): 63.2 µM; GI50 (UACC-62 melanoma): 10.4 µM; TGI (UACC-62 melanoma): 28.6 µM; GI50 (UO-31 renal): 24 µM; TGI (UO-31 renal): > 100 µM
